According to patent publication US9809542B2, “Spiroheterocyclically substituted tetramic acid derivatives” (BAYER INTELLECTUAL PROPERTY GMBH, priority 2010, dated 2017):

Assays:
[1] = test system: larva of the mustard beetle (Phaedon cochleariae); experiment: Phaedon test (PHAECO spray treatment); format: in vivo; conditions: application rate 500 g/ha, Chinese cabbage leaf discs, after 7 days
Experimental: Phaedon Test ([…] Spray Treatment) Solvents: 78.0 parts by weight of acetone • • 1.5 parts by weight of dimethylformamide Emulsifier: 0.5 part by weight of alkylaryl polyglycol ether To produce a suitable preparation of active compound, one part by weight of active compound is mixed with the stated amounts of solvents and emulsifier, and the concentrate is diluted with emulsifier-containing water to the desired concentration. Discs of Chinese cabbage (Brassica pekinensis) are sprayed with an active compound preparation of the desired concentration and, after drying, populated with larva of the mustard beetle (Phaedon cochleariae).

[2] = test system: cotton aphid (Aphis gossypii); experiment: Aphis gossypii test; format: in vivo; conditions: cotton plants; for Kill rate after 6 days: no additive
Experimental: Solvent: 7 parts by weight of dimethylformamide
Emulsifier: 2 parts by weight of alkylaryl polyglycol ether
To produce a suitable preparation of active compound, 1 part by weight of active compound is mixed with the stated amounts of solvent and emulsifier, and the concentrate is diluted with emulsifier-containing water to the desired concentration. For application with ammonium salts and penetrants (rapeseed oil methyl esters 500 EW) these are in each case added in a concentration of 1000 ppm of a.i. to the spray liquor.
Cotton plants (Gossypium hirsutum) which are heavily infested by the cotton aphid (Aphis gossypii) are sprayed to runoff point with the preparation of active compound at the desired concentration.
After the desired period of time, the kill in % is determined. 100% means that all aphids have been killed; 0% means that none of the aphids have been killed.

[3] = test system: caterpillars of the armyworm (Spodoptera frugiperda); experiment: Spodoptera frugiperda test (SPODFR spray treatment); format: in vivo; conditions: application rate 500 g/ha, maize leaf discs, after 7 days
Experimental: Spodoptera frugiperda Test (SPODFR Spray Treatment)
Solvents: 78.0 parts by weight of acetone
(§1) • 1.5 parts by weight of dimethylformamide Emulsifier: 0.5 part by weight of alkylaryl polyglycol ether
To produce a suitable preparation of active compound, 1 part by weight of active compound is mixed with the stated amounts of solvents and emulsifier, and the concentrate is diluted with emulsifier-containing water to the desired concentration. Discs of maize leaves (Zea mays) are sprayed with an active compound preparation of the desired concentration and, after drying, populated with caterpillars of the armyworm (Spodoptera frugiperda).
After 7 days, the effect in % is determined. 100% means that all caterpillars have been killed; 0% means that none of the caterpillars have been killed.

Boophilus microplus = Boophilus microplus test (BOOPMI injection); format: in vivo; conditions: application rate 20 μg/animal; injection into the abdomen; after 7 days
Experimental: Boophilus microplus Test (BOOPMI Injection)
(§2) Solvent: Dimethyl sulphoxide
To produce a suitable preparation of active compound, 10 mg of active compound are mixed with 0.5 ml of solvent and the concentrate is diluted with solvent to the desired concentration. The solution of active compound is injected into the abdomen (Boophilus microplus) and the animals are transferred into dishes and stored in a climatized room. The activity is monitored for deposition of fertile eggs.
After 7 days, the effect in % is determined. 100% means that none of the ticks has laid any fertile eggs.

Lucilia cuprina larva = experiment: Lucilia cuprina test (LUCICU); format: in vivo; conditions: application rate 100 ppm; treated horse meat; after 2 days
Experimental: Lucilia cuprina Test (LUCICU)
as §2
To produce a suitable preparation of active compound, 10 mg of active compound are mixed with 0.5 ml of dimethyl sulphoxide and the concentrate is diluted with water to the desired concentration. Containers containing horse meat treated with the active compound preparation of the desired concentration are populated with about 20 Lucilia cuprina larva.
After 2 days, the kill in % is determined. 100% means that all larva have been killed; 0% means that none of the larva have been killed.

[4] = Penetration of active compounds through enzymatically isolated cuticles of apple tree leaves; format: in vitro ADME, apple trees of the cultivar Golden Delicious; conditions: 300 ppm in DMF/emulsifier W 7:1 (w/w), 20° C., 60% rh; for Penetration after 24 h, EC + RME (1 g/l) + AS (1 g/l): + RME 1 g/l + ammonium sulphate 1 g/l; for Penetration after 24 h, EC + RME (1 g/l) + DAHP (1 g/l): + RME 1 g/l + diammonium hydrogenphosphate 1 g/l; for Penetration after 24 h, EC + AS (1 g/l): + ammonium sulphate 1 g/l; for Penetration after 24 h, EC + DAHP (1 g/l): + diammonium hydrogenphosphate 1 g/l; for Penetration after 24 h, EC + RME (1 g/l): + rapeseed oil methyl ester 1 g/l; for Penetration after 24 h, EC: EC alone
Experimental: Example 8: Increase of Penetration into the Plant by Ammonium or Phosphonium Salts and Synergistic Increase of Penetration into the Plant by Ammonium Salts in Combination with Penetrants
In this test, the penetration of active compounds through enzymatically isolated cuticles of apple tree leaves is measured.
Use is made of leaves which, fully developed, are cut from apple trees of the cultivar Golden Delicious. The cuticles are isolated by • initially filling leaf discs punched out and stained with dye on the underside by vacuum infiltration with a pectinase solution (0.2 to 2% strength) buffered to pH between 3 and 4, • then adding sodium azide and • allowing the leaf discs treated in this manner to stand until the original leaf structure has dissolved and the non-cellular cuticles have detached.
Only the cuticles, free from hairs and stoma, of the upper sides of the leaves are then used further. They are washed repeatedly alternately with water and a buffer solution of pH 7. The clean cuticles obtained are then mounted on Teflon plates and smoothed and dried with a gentle stream of air.
In the next step, the cuticle membranes obtained in this manner are placed into stainless steel diffusion cells (=transport chambers) for membrane transport studies. To this end, the cuticles are placed with a pincette into the centre of the edges, coated with silicone fat, of the diffusion cells and closed with a ring, which is also treated with fat. The arrangement is chosen such that the morphological outside of the cuticles is facing outwards, i.e. is exposed to air, whereas the original inside is facing the interior of the diffusion cell.
The diffusion cells are filled with a 30% strength ethylene glycol/water solution. To determine the penetration, in each case 10 μl of the spray liquor of the composition below are applied to the outside of the cuticles. The spray liquor is prepared using local tap water of medium hardness.
After the application of the spray liquors, the water is allowed to evaporate and the chambers are inverted and placed into thermostated tubs in which the temperature and atmospheric humidity over the cuticles can be adjusted using a gentle stream of air onto the cuticles with the spray coating (20° C., 60% rh). At regular intervals, an autosampler takes aliquots and the active compound content is determined by HPLC.
The stated numbers are average values of 8 to 10 measurements. It is clearly evident that even ammonium sulphate on its own improves the penetration markedly, and that, together with RME, a superadditive (synergistic) effect is present.

[5] = test system: green peach aphid (Myzus persicae); experiment: Myzus test (MYZUPE spray treatment); format: in vivo; conditions: application rate 500 g/ha, Chinese cabbage leaf discs, after 6 days
Experimental: Myzus Test (MYZUPE Spray Treatment)
Solvents: 78 parts by weight of acetone
as §1
To produce a suitable preparation of active compound, 1 part by weight of active compound is mixed with the stated amounts of solvents and emulsifier, and the concentrate is diluted with emulsifier-containing water to the desired concentration. Discs of Chinese cabbage (Brassica pekinensis) which are infested by all stages of the green peach aphid (Myzus persicae) are sprayed with an active compound preparation of the desired concentration. After 6 days, the effect in % is determined. 100% means that all aphids have been killed; 0% means that none of the aphids have been killed.

| Compound | efficacy (effect in %, beetle larva killed) [1] [%] | Kill rate after 6 days, +AS (1000 ppm) ([2]; 20 ppm) [%] | Kill rate after 6 days, +RME (1000 ppm) ([2]; 20 ppm) [%] | Kill rate after 6 days, +RME + AS (1000 ppm each) ([2]; 20 ppm) [%] | Kill rate after 6 days ([2]; 20 ppm) [%] | efficacy (effect in %, caterpillars killed) [3] [%] | efficacy (effect in %, 100% = none of the ticks has laid any fertile eggs) (Boophilus microplus) [%] | efficacy (kill in %) (Lucilia cuprina larva) [%] | Penetration after 24 h, EC + RME (1 g/l) + AS (1 g/l) [4] [%] | Penetration after 24 h, EC + RME (1 g/l) + DAHP (1 g/l) [4] [%] | Penetration after 24 h, EC + AS (1 g/l) [4] [%] | Penetration after 24 h, EC + DAHP (1 g/l) [4] [%] | Penetration after 24 h, EC + RME (1 g/l) [4] [%] | Penetration after 24 h, EC [4] [%] | efficacy (effect in %, aphids killed) [5] [%] | Kill rate after 6 days, +AS (1000 ppm) ([2]; 4 ppm) [%] | Kill rate after 6 days, +RME (1000 ppm) ([2]; 4 ppm) [%] | Kill rate after 6 days, +RME + AS (1000 ppm each) ([2]; 4 ppm) [%] | Kill rate after 6 days ([2]; 4 ppm) [%] |
| --- | --- | --- | --- | --- | --- | --- | --- | --- | --- | --- | --- | --- | --- | --- | --- | --- | --- | --- | --- |
| CON1CCC2(CC1)NC(=O)C(c1c(C)ccc(-c3ccc(F)cc3)c1C)=C2O [I-a-1] | 83 | 40 | 55 | 100 | 0 | 83 | 95 | 90 | 19 | 15 | 3.8 | 2.3 | 0.8 | <0.2 | 90 | – | – | – | – |
| CCON1CCC2(CC1)NC(=O)C(c1c(C)ccc(-c3ccc(F)cc3)c1C)=C2O [I-a-2] | 100 | 25 | 20 | 90 | 0 | 100 | 90 | 90 | 17 | 21 | 3.8 | 3.9 | 1.7 | 1.4 | 100 | 0 | 0 | 45 | 0 |
